{"source": "patent US10118891B2", "about": "“Organosulfur compounds for the prevention and treatment of neurodegenerative diseases” (Allium Vitalis, Inc., priority 2011, dated 2018)", "key": {"[1]": {"tested_on": "protein carbonyls in synaptosomal membranes", "conditions": "cited from earlier work"}, "[2]": {"tested_on": "Ehrilich ascites tumor cells", "conditions": "intracellular concentrations up to 0.6 mM; cited from earlier work"}, "[3]": {"conditions": "cited from earlier work"}, "[4]": {"test": "experimental self-consumption by the applicant, tolerability", "format": "in vivo, human", "conditions": "240 mg/day for several weeks"}, "ischemia": {"tested_on": "ischemia", "conditions": "ischemia with elevation of HNE; cited from earlier work"}, "[5]": {"conditions": "oil and water system; cited from earlier work"}, "[6]": {"test": "partition coefficient (Log P), oil and water system", "format": "physicochemical", "conditions": "worked out from Log P", "excerpt": "Lipophilic molecule: Attracted to lipids. A molecule is lipophilic if it preferentially partitions into the oily side of an oil and water system."}, "[7]": {"tested_on": "glutathione content of cells", "conditions": "daily dosage of 1000 mg, multiple myeloma patients, with arsenic trioxide; cited from earlier work"}}, "data": [{"molecule": "CCOC(=O)CNC(=O)[C@H](CS)NC(=O)CC[C@H](N)C(=O)O", "note": "[GEE, Glutathione Ethyl Ester]", "values": [{"measurement": "protein carbonyls, % of Control", "setting": "[1]; GEE alone, no acrolein", "value": 85, "unit": "%"}, {"measurement": "protein carbonyls, \"GEE+Acrolein\" bar", "setting": "[1]; synaptosomal membranes pretreated with GEE (3 hours), then acrolein", "value": "163 % of \"Control\""}]}, {"molecule": "CC(O)C=CC=O", "note": "(stereo not drawn) [HPE]", "values": [{"measurement": "effect on protein sulfhydryls or enzyme activities", "setting": "[2]", "value": "no effect"}, {"measurement": "low molecular weight thiols", "setting": "[2]", "value": "depleted"}]}, {"molecule": "C=CCS", "note": "[allyl mercaptan, AllylThiol]", "values": [{"measurement": "solubility in water", "setting": "[3]", "value": 5, "unit": "mg/mL"}, {"measurement": "negative effects on consumption", "setting": "[4]", "value": "without any apparent negative effects"}, {"measurement": "standard comprehensive blood test at the end of the experiment", "setting": "[4]", "value": "essentially normal"}]}, {"molecule": "CC1=NN(c2ccccc2)C(=O)C1", "note": "[edaravone]", "values": [{"measurement": "effect of treatment in ischemia", "setting": "ischemia", "value": "protective effect"}]}, {"molecule": "CCCS", "note": "[propyl mercaptan, 1-PropaneThiol]", "values": [{"measurement": "partition coefficient (Log P)", "setting": "[5]", "value": 1.95}, {"measurement": "ratio of concentration on the oily side to the aqueous side", "setting": "[6]", "value": "~100"}]}, {"molecule": "O=C1O[C@H]([C@@H](O)CO)C(O)=C1O", "note": "[vitamin C]", "values": [{"measurement": "glutathione depletion, mean percentage decrease", "setting": "[7]", "value": 60, "unit": "%"}]}, {"molecule": "Acrolein", "values": [{"measurement": "protein carbonyls, \"C+Acrolein\" bar", "setting": "[1]; synaptosomal membranes, acrolein without GEE pretreatment", "value": "552 % of \"Control\""}]}]}
